From patent publication US20250282768A1 (Janssen Pharmaceutica NV, priority 2022, published 2025)

Test system: p-IKKa levels in L363 (NIK translocated multiple myeloma) cells
Assay: Assay 2: Effect of compounds on p-IKKa levels in L363 (NIK translocated multiple myeloma) cells
Assay type: cell-based
Details: Homo sapiens, L-363, 6 h, read-out: Assay 2 IC50 (nM), p-IKKa (Ser 176/180) in BAFF stimulated L363 cells with MG132, 6 h; average if tested more than once
Procedure: Assay 2: Effect of Compounds on p-IKKa Levels in L363 (NIK Translocated Multiple Myeloma) Cells
All compounds tested were dissolved and serially diluted in DMSO, 1:3 dilution for 11 points in an Echo compatible plate. 100% DMSO was added to columns 12 and 24 of the plate to serve as high and low signal controls. This compound plate was used to spot 20 nL of compound or DMSO into a Greiner 384 well TC plate (781080). The final DMSO concentration was 0.3% (v/v) in cell assays. Human L363 cells (ATCC) were cultured in RPM11640 medium supplemented with GlutaMax, non-essential amino acids, sodium pyruvate and 10% fetal bovine serum. Cells were routinely maintained at densities of 0.2×10^6 cells per ml—2×10^6 cells per mL at 37° C. in a humidified 5% CO2 atmosphere incubator. Cells were passaged twice a week splitting back to obtain the low density. The day before the assay, cells were washed twice in HBSS (Hank's Balanced Salt Solution), resuspended in Dulbecco's Modified Eagle Medium (DMEM)+0.5% IgG and protease free BSA (Jackson Immuno Research Laboratories), +/−250 ng/ml recombinant human B-cell activating factor (BAFF/BLyS/TNFSF13B) and incubated overnight at 37° C. in a humidified 5% CO2 atmosphere (bulk stimulation with or without BAFF). The next day, the cell concentration was adjusted to 1×10^7 cells/ml in DMEM+/−250 ng/ml BAFF +/−10 μM MG132 and plated at 10 μl/well into compound or DMSO spotted 384 well TC plates. Seeded cells were incubated at 37° C. in a humidified 5% CO2 atmosphere for 6 h. After 6 h, the plates were removed from the incubator and cell lysis was achieved by the addition of 2.5 μl 5×lysis buffer containing protease and phosphatase inhibitors, followed by shaking on a plate shaker at room temperature for 15 min. At the end of this incubation, lysed cells were sequentially treated and incubated with acceptor and donor bead mixes according to the manufacturer's protocol for a 1 plate/2-incubation suspension cell assay (AlphaLISA SureFire Ultra p-IKKa (Ser 176/180) Assay Kit (Perkin Elmer). Plates were read using an EnVision Multilabel Plate Reader (Perkin Elmer). Within an experiment, a concentration response curve for each compound was run in duplicate. The signal obtained in the test wells was normalized using high signal (BAFF stimulated cells, DMSO, MG132) and low signal (unstimulated cells, DMSO) controls. To determine the IC50, a sigmoidal curve was fitted to the plot of % inhibition versus Log10 compound concentration.

Cc1ncccc1Nc1nccc(-c2cccc(-c3cc([C@]4(O)CCN(C)C4=O)no3)n2)n1 [Example 111, (R)-3-Hydroxy-1-methyl-3-(5-(6-(2-((2-methylpyridin-3-yl)amino)pyrimidin-4-yl)pyridin-2-yl)isoxazol-3-yl)pyrrolidin-2-one]
IC50: < 50 nM

CO[C@@H](C)CNc1nccc(-c2cccc(-c3cc([C@]4(O)CCN(C)C4=O)on3)n2)n1 [Example 362, (R)-3-Hydroxy-3-(3-(6-(2-(((S)-2-methoxypropyl)amino)pyrimidin-4-yl)pyridin-2-yl)isoxazol-5-yl)-1-methylpyrrolidin-2-one]
IC50: 50 to 500 nM

CN1CC[C@](O)(c2cnn(-c3cccc(-c4ccnc(Nc5cnn(C)c5)n4)n3)c2)C1=O (single isomer, unassigned) [Example 77]
IC50: 50 to 500 nM

CN1CC[C@@](O)(c2cc(-c3cccc(-c4ccnc(Nc5nn(C)c6nccnc56)n4)c3)no2)C1=O [Example 422, (R)-3-Hydroxy-1-methyl-3-(3-(3-(2-((1-methyl-1H-pyrazolo[3,4-b]pyrazin-3-yl)amino)pyrimidin-4-yl)phenyl)isoxazol-5-yl)pyrrolidin-2-one]
IC50: > 500 nM

CN1CC[C@@](O)(c2cc(-c3cccc(-c4ccnc(Nc5ccn(C)n5)n4)n3)on2)C1=O [Example 263, (R)-3-Hydroxy-1-methyl-3-(5-(6-(2-((1-methyl-1H-pyrazol-3-yl)amino)pyrimidin-4-yl)pyridin-2-yl)isoxazol-3-yl)pyrrolidin-2-one]
IC50: < 50 nM

CNC(=O)c1cc(Nc2nccc(-c3cccc(-c4cc([C@]5(O)CCN(C)C5=O)on4)n3)n2)nn1C(C)C [Example 464, (R)-3-((4-(6-(5-(3-Hydroxy-1-methyl-2-oxopyrrolidin-3-yl)isoxazol-3-yl)pyridin-2-yl)pyrimidin-2-yl)amino)-1-isopropyl-N-methyl-1H-pyrazole-5-carboxamide]
IC50: < 50 nM

CN1CC[C@@](O)(c2cc(-c3cccc(-c4ccnc(NCC5(O)CC5)n4)n3)no2)C1=O [Example 466, (R)-3-Hydroxy-3-(3-(6-(2-(((1-hydroxycyclopropyl)methyl)amino)pyrimidin-4-yl)pyridin-2-yl)isoxazol-5-yl)-1-mehtylpyrrolidin-2-one]
IC50: > 500 nM

Cc1c(Nc2nccc(-c3cccc(-c4cc([C@]5(O)CCN(C)C5=O)on4)n3)n2)cnn1CC(C)(C)O [Example 269, (R)-3-Hydroxy-3-(3-(6-(2-((1-(2-hydroxy-2-methylpropyl)-5-methyl-1H-pyrazol-4-yl)amino)pyrimidin-4-yl)pyridin-2-yl)isoxazol-5-yl)-1-methylpyrrolidin-2-one]
IC50: < 50 nM

COc1nn(CC(F)F)cc1Nc1nccc(-c2cccc(-c3cc([C@]4(O)CCN(C)C4=O)on3)n2)n1 [Example 58, (R)-3-(3-(6-(2-((1-(2,2-Difluoroethyl)-3-methoxy-1H-pyrazol-4-yl)amino)pyrimidin-4-yl)pyridin-2-yl)isoxazol-5-yl)-3-hydroxy-1-methylpyrrolidin-2-one]
IC50: < 50 nM

CN1CC[C@@](O)(c2cnc(-c3cccc(-c4ccnc(Nc5ccn(C)n5)n4)n3)s2)C1=O (single isomer, unassigned) [Example 78]
IC50: > 500 nM

CN1CC[C@@](O)(c2cc(-c3cccc(-c4ccnc(Nc5nnc(C(F)F)o5)n4)n3)no2)C1=O [Example 324, (R)-3-(3-(6-(2-((5-(Difluoromethyl)-1,3,4-oxadiazol-2-yl)amino)pyrimidin-4-yl)pyridin-2-yl)isoxazol-5-yl)-3-hydroxy-1-methylpyrrolidin-2-one]
IC50: > 500 nM

CN1CC[C@@](O)(c2cc(-c3cccc(-c4ccnc(Nc5nn(C)c6c5CNC6)n4)c3)no2)C1=O [Example 418, (R)-3-Hydroxy-1-methyl-3-(3-(3-(2-((1-methyl-1,4,5,6-tetrahydropyrrolo[3,4-c]pyrazol-3-yl)amino)pyrimidin-4-yl)phenyl)isoxazol-5-yl)pyrrolidin-2-one]
IC50: > 500 nM

CN1CC[C@@](O)(c2cc(-c3cccc(-c4ccnc(NC5CCC(C(F)(F)F)CC5)n4)n3)no2)C1=O (stereo partly drawn) [Example 451, (R)-3-Hydroxy-1-methyl-3-(3-(6-(2-((4-(trifluoromethyl)cyclohexyl)amino)pyrimidin-4-yl)pyridin-2-yl)isoxazol-5-yl)pyrrolidin-2-one]
IC50: > 500 nM

CN1CC[C@@](O)(c2ncc(-c3cccc(-c4ccnc(Nc5ccn(C)n5)n4)n3)s2)C1=O (single isomer, unassigned) [Example 82]
IC50: > 500 nM

COc1nn(C(CO)CO)cc1Nc1nccc(-c2cccc(-c3cc([C@]4(O)CCN(C)C4=O)on3)n2)n1 [Example 9, (R)-3-(3-(6-(2-((1-(1,3-Dihydroxypropan-2-yl)-3-methoxy-1H-pyrazol-4-yl)amino)pyrimidin-4-yl)pyridin-2-yl)isoxazol-5-yl)-3-hydroxy-1-methylpyrrolidin-2-one]
IC50: 50 to 500 nM

Cc1nccc(Nc2nccc(-c3cccc(-c4cc([C@]5(O)CCN(C)C5=O)on4)n3)n2)c1F [Example 334, (R)-3-(3-(6-(2-((3-Fluoro-2-methylpyridin-4-yl)amino)pyrimidin-4-yl)pyridin-2-yl)isoxazol-5-yl)-3-hydroxy-1-methylpyrrolidin-2-one]
IC50: < 50 nM

COC[C@H](C)Nc1nccc(-c2cccc(-c3cc([C@]4(O)CCN(C)C4=O)on3)n2)n1 [Example 440, (R)-3-Hydroxy-3-(3-(6-(2-(((S)-1-methoxypropan-2-yl)amino)pyrimidin-4-yl)pyridin-2-yl)isoxazol-5-yl)-1-methylpyrrolidin-2-one]
IC50: 50 to 500 nM

Cc1cnnc(Nc2nccc(-c3cccc(-c4cc([C@]5(O)CCN(C)C5=O)on4)n3)n2)n1 [Example 265, (R)-3-Hydroxy-1-methyl-3-(3-(6-(2-((5-methyl-1,2,4-triazin-3-yl)amino)pyrimidin-4-yl)pyridin-2-yl)isoxazol-5-yl)pyrrolidin-2-one]
IC50: > 500 nM

COc1ncc(Nc2nccc(-c3cccc(-c4cc([C@]5(O)CCN(C)C5=O)on4)n3)n2)cn1 [Example 112, (R)-3-Hydroxy-3-(3-(6-(2-((2-methoxypyrimidin-5-yl)amino)pyrimidin-4-yl)pyridin-2-yl)isoxazol-5-yl)-1-methylpyrrolidin-2-one]
IC50: 50 to 500 nM

CCS(=O)(=O)N1CCC(Nc2nccc(-c3cccc(-c4cc([C@]5(O)CCN(C)C5=O)on4)n3)n2)CC1 [Example 470, (R)-3-(3-(6-(2-((1-(Ethylsulfonyl)piperidin-4-yl)amino)pyrimidin-4-yl)pyridin-2-yl)isoxazol-5-yl)-3-hydroxy-1-methylpyrrolidin-2-one]
IC50: < 50 nM

C[C@H](CF)Nc1nccc(-c2cccc(-c3cc([C@]4(O)CCN(C)C4=O)on3)n2)n1 [Example 353, (R)-3-(3-(6-(2-(((R)-1-Fluoropropan-2-yl)amino)pyrimidin-4-yl)pyridin-2-yl)isoxazol-5-yl)-3-hydroxy-1-methylpyrrolidin-2-one]
IC50: 50 to 500 nM

COCC1CC(Nc2nccc(-c3cccc(-c4cc([C@]5(O)CCN(C)C5=O)on4)n3)n2)CO1 (stereo partly drawn) [Example 366, (3R)-3-Hydroxy-3-(3-(6-(2-((5-(methoxymethyl)tetrahydrofuran-3-yl)amino)pyrimidin-4-yl)pyridin-2-yl)isoxazol-5-yl)-1-methylpyrrolidin-2-one]
IC50: 50 to 500 nM

C[C@H](Nc1nccc(-c2cccc(-c3cc([C@]4(O)CCN(C)C4=O)on3)n2)n1)c1ccn(C)n1 (single isomer, unassigned) [Example 405, (R)-3-hydroxy-1-methyl-3-(3-(6-(2-(((*S)-1-(1-methyl-1H-pyrazol-3-yl)ethyl)amino)pyrimidin-4-yl)pyridin-2-yl)isoxazol-5-yl)pyrrolidin-2-one]
IC50: 50 to 500 nM

Cc1cn(C2CC(O)C2)nc1Nc1nccc(-c2cccc(-c3cc([C@]4(O)CCN(C)C4=O)on3)n2)n1 (stereo partly drawn) [Example 50, (R)-3-Hydroxy-3-(3-(6-(2-((1-(3-hydroxycyclobutyl)-4-methyl-1H-pyrazol-3-yl)amino)pyrimidin-4-yl)pyridin-2-yl)isoxazol-5-yl)-1-methylpyrrolidin-2-one]
IC50: < 50 nM

CN1CC[C@@](O)(c2cc(-c3cccc(-c4ccnc(Nc5cn(CC(F)F)nc5OC5CC5)n4)c3)no2)C1=O [Example 413, (R)-3-(3-(3-(2-((3-Cyclopropoxy-1-(2,2-difluoroethyl)-1H-pyrazol-4-yl)amino)pyrimidin-4-yl)phenyl)isoxazol-5-yl)-3-hydroxy-1-methylpyrrolidin-2-one]
IC50: 50 to 500 nM
